The source of these data is patent publication US20190125646A1, “ORAL COMPOSITION FOR TOOTH WHITENING PRODUCT, AND KIT COMPRISING SAME” (LG HOUSEHOLD & HEALTH CARE LTD., priority 2013, published 2019).

Data set [1] can be described thus: Survey evaluation related to irritation (Experimental Example 3). It is filed as in vivo. To be noted: subjects' own evaluation after use, score 0-3; FIG. 3. An excerpt:
After using comparative example 2 and examples 1 and 2, each subject was allowed to evaluate the degree of irritation on a 3-point scale according to the following evaluation criteria.
2: Certainly sensible irritation.
3: Stop using due to irritation

The nature of data set [2]: Brightness variation (Experimental Example 4). The conditions noted are these: gel first agent plus hydrogen peroxide 3.0% patch on stained HAP disk, removed after 1 hour; FIG. 4. As for the experimental part: Comparative examples 3 through 8 and example 5 were each attached to a stained HAP disk and were removed after 1 hour, and variations relative to initial brightness were measured and were indicated as ΔL.

“Also recorded” adds a separate entry of the source.

As to `NCCS(=O)(=O)O` [taurine], the “degree of irritation (survey, 3-point scale)” value in data set [1] was “significantly reduced”. Regarding iron chloride, the “degree of irritation (survey, 3-point scale)” value in data set [1] was “more severe”. Moreover, the “whitening effect (variation relative to initial brightness, ΔL)” value in data set [2] is on record as “highest tooth whitening effect; also recorded: remarkably superior effect than other metal ions”.
